From patent publication US10184134B2, “Soybean event SYHT0H2 and compositions and methods for detection thereof” (Syngenta Participations AG, priority 2010, dated 2019)

Columns and labels:
Assay type in all cases: in vivo
[1] = tested on: non-transgenic soybean line Jack; assay: Field efficacy against glufosinate, non-transgenic soybean line Jack; conditions: 900 g ai/ha glufosinate at V2/V3 stage and second treatment at V5-V6 stage, 8 locations in the United States
Protocol: (§1) SYHT0H2 soybean plants were tested for efficacy against glufosinate in 8 locations in the United States. The non-transgenic soybean line Jack was used as a control. Soybean plants, both SYHT0H2 and Jack, were treated with 900 g ai/ha of glufosinate at the V2/V3 stage and then a second treatment at the V5-V6 stage. They were then assessed for percentage of leaves showing injury at 4-8 days after treatment (DAT), 13-20 DAT, and 26-35 DAT.

SYHT0H2 soybean plants = assay: Field efficacy against glufosinate, SYHT0H2 soybean plants; conditions: 900 g ai/ha glufosinate at V2/V3 stage and second treatment at V5-V6 stage, 8 locations in the United States
Protocol: as §1

[2] = tested on: Event SYHT0H2 soybean plants; assay: Field efficacy against mesotrione, event SYHT0H2 soybean plants; conditions: 210 g ai/ha mesotrione at V2/V3 stage, 5 locations in the United States
Protocol: (§2) Event SYHT0H2 soybean plants were tested for efficacy against mesotrione in 5 locations in the United States. The non-transgenic soybean line Jack was used as a control. Soybean plants, both SYHT0H2 and Jack, were treated with 210 g ai/ha of mesotrione at the V2/V3 stage and then assessed for percentage of leaves showing injury at 4-7 days after treatment (DAT), 13-17 DAT, and 25-33 DAT.

[3] = tested on: Event SYHT0H2 soybean plants; assay: Herbicide tolerance performance of transgenic soybean transformants; conditions: event SYHT0H2 from a population of about 90 transformants
From the text: After plants became established in the soil and new growth appeared (˜1-2 weeks), plants were sampled and tested for the presence of desired transgene by TAQMAN® analysis using appropriate probes for the HPPD genes, or promoters (for example prCMP). Positive plants were transplanted into 4″ square pots containing Fafard #3 soil. Sierra 17-6-12 slow release fertilizer was incorporated into the soil at the recommended rate. The plants were then relocated into a standard greenhouse to acclimatize (˜1 week). The environmental conditions were: 27° C. day; 21° C. night; 14 hour photoperiod (with supplemental light); ambient humidity. After acclimatizing (˜1 week), the plants were sampled and tested in detail for the presence and copy number of inserted transgenes. Transgenic soybean plants were grown to maturity for T1 seed production. T1 plants were grown up, and after TAQMAN® analysis, homozygous plants were grown for seed production. Transgenic seeds and progeny plants were used to further evaluate their herbicide tolerance performance and molecular characteristics.

[4] = tested on: non-transgenic soybean line Jack; assay: Field efficacy against mesotrione, non-transgenic soybean line Jack; conditions: 210 g ai/ha mesotrione at V2/V3 stage, 5 locations in the United States
Protocol: as §2

Molecule | % Injury (percentage of leaves showing injury) ([1]; 4-8 DAT) | % Injury (percentage of leaves showing injury) ([1]; 13-20 DAT) | % Injury (percentage of leaves showing injury) ([1]; 26-35 DAT) | % Injury (percentage of leaves showing injury) (SYHT0H2 soybean plants; 4-8 DAT) | % Injury (percentage of leaves showing injury) (SYHT0H2 soybean plants; 13-20 DAT) | % Injury (percentage of leaves showing injury) (SYHT0H2 soybean plants; 26-35 DAT) | % Injury (percentage of leaves showing injury) ([2]; 4-7 DAT) | % Injury (percentage of leaves showing injury) ([2]; 13-17 DAT) | % Injury (percentage of leaves showing injury) ([2]; 25-33 DAT) | herbicide tolerance of event SYHT0H2 [3] | % Injury (percentage of leaves showing injury) ([4]; 4-7 DAT) | % Injury (percentage of leaves showing injury) ([4]; 13-17 DAT) | % Injury (percentage of leaves showing injury) ([4]; 25-33 DAT)
2-amino-4-methylphosphinobutyric acid [glufosinate] | 100% | 100% | 100% | 9% | 5% | 0% |  |  |  |  |  |  | 
CS(=O)(=O)c1ccc(C(=O)C2C(=O)CCCC2=O)c([N+](=O)[O-])c1 [mesotrione] |  |  |  |  |  |  | 13.2% | 4.7% | 0% | high level of mesotrione tolerance | 46.5% | 81% | 62.4%
